Data from the NIST ThermoML archive (doi:10.1021/je800197t).

Settings: Liquid

CN1CCOCC1 [N-methylmorpholine]
Settings | mass density [kg/m3] | viscosity [mPa·s]
293.15 K | 918.74 | 1.028
303.15 K | 909.54 | 0.959
313.15 K | 902.37 | 0.858
323.15 K | 893.32 | 0.754
333.15 K | 884.36 | 0.626
343.15 K | 876.52 | 0.498
